Read-outs that look alike come from different tables or passages of the source.
Key:
Format in all cases: cell-based
[1] = tested on: HIV-1 recombinant strain encoding reverse transcriptase mutation Y181C; test: Resistance profile against HIV-1 RT mutants in MT-2 cells, Y181C; conditions: ratio of mean EC50 mutant/WT virus
Description: (§1) Compounds were tested for antiviral activity against a panel of NNRTI resistant viruses. A panel of 8 clonal site-directed mutant viruses representing the major resistance development pathways against rilpivirine (“RPV”), efavirenz (“EFV”), and nevirapine (“NVP”), containing both single and double mutations within HIV-1 reverse transcriptase was employed. Further details and background can be found in Janssen et al. J. Med. Chem, 2005, 48, 1901-1909; Das et al., Proc. Nat. Acad. Sci., 2008, vol., 105, no. 5, 1466-1471; and Kuroda et al., Nature Chemistry, 2013, DOI: 10.1038/NCHEM. 1559. […] HIV-1 recombinant strains encoding reverse transcriptase mutations K103N, Y181C, Y188L, G190A, K103N/Y181C, L1001/Y181C, E138K or E138KIM 184V were constructed by site-directed mutagenesis. Wild-type and mutant viruses were prepared by transfecting infectious proviral HXB2-based cDNA clones into MT-2 cells and harvesting the cell supernatants. MT-2 cells were infected with wild-type and mutant HIV-1 strains at a multiplicity of infection (MOI) of 0.005 by gentle mixing for 3 hours at 37° C. and then added at a density of 16,667 cells per well in 50 μL complete RPMI cell culture media (containing 10% fetal bovine serum (FBS) and 10% penicillin-streptomycin) to 96-well plates containing 50 μL of a 3-fold serial dilution of test compounds in RPMI medium. After 5 days of incubation at 37° C. in a humidified incubator in the presence of 5% CO2. 100 μL of Cell Titer-Glo™ Reagent (Promega Biosciences, Inc., Madison, Wis.) was added to each well and the relative light units (RLU) measured on an Envision plate reader. […] The EC50 value was defined as the compound concentration inducing a 50% decrease in virus replication. Data analysis for the antiviral activity observed in MT-2 cells was performed using XL-Fit™ software (IDBS, Guildford, Surrey, UK) to calculate EC50 from an 8-point dose-response curve using the following equation:
(§2) [formula] where y=virus inhibition, x=drug concentration, M=maximum inhibition, H=minimum inhibition and n=Hill coefficient, EC50 values (mean±standard deviation) were calculated from at least three independent experiments performed in triplicate. The level of resistance was calculated as a ratio of the mean EC50 for each mutant/WT virus. Results are disclosed in FIG. 1 and in Tables 3 and 4 below.

[2] = tested on: HIV-1 recombinant strain encoding reverse transcriptase mutation Y188L; test: Resistance profile against HIV-1 RT mutants in MT-2 cells, Y188L; conditions: ratio of mean EC50 mutant/WT virus
Description: as §1, §2

[3] = tested on: HIV-1 reverse transcriptase mutant K103N; test: High throughput cytopathic effect assay in MT-4 cells, K103N mutant; conditions: for EC50: Human immunodeficiency virus 1, MT4, 120 h, read-out: MT4 EC50 (nM) against K103N; for FC against mutant K103N: fold change of MT4 EC50 versus w.t. assay 2
Source text: (§3) Compounds were screened in a miniaturized, high throughput cytopathic effect assay for activity against HIV-1 HBX2 (wild type) and HIV-1 reverse transcriptase mutants K103N and Y181C. In Tables 1 and 2 below. “w.t.” refers to results of the tested compounds run with the wildtype 1 and “w.t, assay 2” refers results of the tested compounds run with the wildtype on the same day as the testing of the compounds with the mutants. Thus, “w.t, assay 2” was run under the same conditions as the testing of the compounds with the mutants and provides a direct comparison with the results from the testing with the mutants.
(§4) Ten-point serial dilutions of compounds with half-log step size were generated in DMSO. AZT ([…]) was used as the positive control and DMSO as the negative control. The Echo acoustic dispenser was used to deliver 200 nL of serially diluted compound into sterile 384 well tissue culture assay plates. Two million MT-4 cells were incubated with each of the 3 viruses at MOI of 0.0005 in separate 1 mL infection tubes for 1 hour at 37° C. The cells were diluted in cell culture medium (RPMI+10% FBS) to 50.000 cells/mL. The infected cells were added to 384 well assay plates containing serially dilute compounds. Assay plates were incubated for 5 days in a humidified incubator set at 37° C. and 5% CO2. To measure the cytopathic effect of HIV, 40 μL Cell TiterGlo was added to each well and the resulting luminescence signal is read with the Envision plate reader (Perkin Elmer). Data were normalized to positive and negative controls in each plate and expressed as % CPE Protection. EC50 values were defined as the compound concentration that caused a 50% decrease in luminescence signal, and were calculated by non-linear regression using Pipeline Pilot software by applying a four parameter fit equation (Accelrys, San Diego, Calif.).

[4] = tested on: HIV-1 recombinant strain encoding reverse transcriptase mutation K103N/Y181C; test: Resistance profile against HIV-1 RT mutants in MT-2 cells, K103N/Y181C; conditions: ratio of mean EC50 mutant/WT virus
Description: as §1, §2

[5] = tested on: HIV-1 reverse transcriptase mutant Y181C; test: High throughput cytopathic effect assay in MT-4 cells, Y181C mutant; conditions: for EC50: Human immunodeficiency virus 1, MT4, 120 h, read-out: MT4 EC50 (nM) against Y181C; for FC against mutant Y181C: fold change of MT4 EC50 versus w.t. assay 2
Source text: as §3, §4

[6] = tested on: HIV-1 HBX2 (wild type); test: High throughput cytopathic effect assay in MT-4 cells, wild type HIV-1
Source text: as §3, §4

[7] = tested on: HIV-1 recombinant strain encoding reverse transcriptase mutation L100I/Y181C; test: Resistance profile against HIV-1 RT mutants in MT-2 cells, L100I/Y181C; conditions: ratio of mean EC50 mutant/WT virus
Description: as §1, §2

[8] = tested on: HIV-1 recombinant strain encoding reverse transcriptase mutation K103N; test: Resistance profile against HIV-1 RT mutants in MT-2 cells, K103N; conditions: ratio of mean EC50 mutant/WT virus
Description: as §1, §2

[9] = target: T1, hERG channels (Homo sapiens, UniProt Q12809); test: hERG assay, whole cell recordings in CHO cell line stably expressing hERG channels; conditions: CHO cells, whole cell patch clamp; greater than values indicate the maximum achievable concentration in the assay
T1 construct: host or cells: CHO cell line stably expressing hERG
Description: AVIVA's CHO cell line, which stably expresses hERG channels, was used for the study. Cells were cultured in DMEM/F12 containing 10% FBS, 1% penicillin/streptomycin and 500 μg/ml G418. Before testing, cells were harvested using Accumax (Innovative Cell Technologies).
External Solution: 2 mM CaCl2; 2 mM MgCl2; 4 mM KCl; 150 mM NaCl; 10 mM Glucose; 10 mM HEPES; 305-315 mOsm; pH 7.4 (adjusted with 5M NaOH.)
Internal Solution: 140 mM KCl; 10 mM MgCl2; 6 mM EGTA; 5 mM HEPES-Na; 5 mM ATP-Mg; 295-305 mOsm; pH 7.25 (adjusted with 1M KOH).
Whole cell recordings were performed using PX 7000A (Axon Instruments) with AVIVA's SealChip™ technology. Cells were voltage clamped at a holding potential of −80 mV. The hERG current was then activated by a depolarizing step to −50 mV for 300 ms. This first step at −50 mV was used as a baseline for measuring peak amplitude of the tail current. Next, a voltage step to +20 mV was applied for 5 s to activate the channels. Finally, a step back to −50 mV for 5 s removed activation and the deactivating tail current was recorded.
All test articles were prepared from 10 mM DMSO stock solutions. Solutions were mixed by sonication for 20 min, followed by vigorous vortexing. Prior to testing, compounds were diluted to test concentrations in glass vials using External Solution. Dilutions were prepared no longer than 20 min prior to use.
After achieving whole cell configuration, cells were monitored for 90 s to assess stability and then washed with External Solution for 66 s. The voltage protocol was then applied to the cells every 12 s throughout the procedure. Only stable cells with recording parameters above threshold were allowed to enter the drug addition procedure.
External solution containing 0.1% DMSO (vehicle) was applied to the cells to establish a baseline. After allowing the current to stabilize for 3 to 10 min, test articles were applied. Test article solutions were added to cells in 4 separate additions. Cells were kept in test solution until effect of the test article reached steady state, to a maximum of 12 min. Next, 1 μM cisapride (positive control) was added. Finally, washout with External Solution was performed until the recovery current reached steady state.
Data analysis was performed using DataXpress (Axon Instruments), Clampfit (Axon Instruments) and Origin (OriginLab Corporation) software. The greater than values in Table 5 indicate the maximum achievable concentration in the assay (e.g., compounds achieving their solubility limit).

[10] = Human immunodeficiency virus 1, MT4, 120 h, MT-4 cells, 5 days, cytopathic effect, Cell TiterGlo, read-out: MT4 EC50 (nM) against w.t.
[11] = Human immunodeficiency virus 1, MT4, read-out: MT4 EC50 (nM) against w.t. assay 2

T1 sequence (Q12809 whole entry): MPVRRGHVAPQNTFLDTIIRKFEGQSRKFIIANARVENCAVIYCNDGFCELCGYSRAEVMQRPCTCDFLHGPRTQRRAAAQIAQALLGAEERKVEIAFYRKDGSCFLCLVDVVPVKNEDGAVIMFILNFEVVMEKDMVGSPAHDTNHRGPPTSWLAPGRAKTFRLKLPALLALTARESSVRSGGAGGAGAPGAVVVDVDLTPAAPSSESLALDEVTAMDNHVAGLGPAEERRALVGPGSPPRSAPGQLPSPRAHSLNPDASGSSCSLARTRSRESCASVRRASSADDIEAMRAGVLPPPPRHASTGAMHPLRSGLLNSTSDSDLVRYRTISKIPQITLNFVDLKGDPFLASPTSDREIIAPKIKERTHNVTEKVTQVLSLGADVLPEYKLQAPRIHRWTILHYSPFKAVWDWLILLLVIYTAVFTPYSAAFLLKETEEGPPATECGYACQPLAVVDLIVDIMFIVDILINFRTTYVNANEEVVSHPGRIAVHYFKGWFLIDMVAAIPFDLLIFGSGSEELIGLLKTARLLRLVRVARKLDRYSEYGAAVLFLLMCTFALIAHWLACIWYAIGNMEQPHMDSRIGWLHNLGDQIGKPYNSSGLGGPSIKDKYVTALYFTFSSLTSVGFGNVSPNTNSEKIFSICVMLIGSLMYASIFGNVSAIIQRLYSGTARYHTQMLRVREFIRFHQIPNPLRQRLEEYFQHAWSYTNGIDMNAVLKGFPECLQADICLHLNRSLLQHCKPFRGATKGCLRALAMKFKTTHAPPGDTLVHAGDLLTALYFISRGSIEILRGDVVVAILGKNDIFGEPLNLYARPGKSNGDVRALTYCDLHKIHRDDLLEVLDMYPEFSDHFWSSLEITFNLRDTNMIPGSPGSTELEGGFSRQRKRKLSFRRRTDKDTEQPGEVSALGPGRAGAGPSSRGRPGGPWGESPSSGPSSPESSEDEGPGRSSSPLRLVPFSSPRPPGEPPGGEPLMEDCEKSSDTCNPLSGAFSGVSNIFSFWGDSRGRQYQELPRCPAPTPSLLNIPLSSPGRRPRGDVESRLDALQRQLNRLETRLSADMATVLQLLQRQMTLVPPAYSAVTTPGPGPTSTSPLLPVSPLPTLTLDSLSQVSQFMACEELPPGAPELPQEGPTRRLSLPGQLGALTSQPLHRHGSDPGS

| SMILES | Biology resistance panel-low throughput fold change (FC) Y181C [1] | Biology resistance panel-low throughput fold change (FC) Y188L [2] | EC50 [3] [nM] | FC against mutant K103N [3] | Biology resistance panel-low throughput fold change (FC) K103N/Y181C [4] | EC50 [5] [nM] | FC against mutant Y181C [5] | EC50 [6, 10] [nM] | EC50 [6, 11] [nM] | Biology resistance panel-low throughput fold change (FC) L100I/Y181C [7] | Biology resistance panel-low throughput fold change (FC) K103N [8] | hERG [9] [µM] | EC50 ([6]; Human immunodeficiency virus 1, MT4, 120 h, read-out: MT4 EC50 (nM) against w.t.) [nM] |
| --- | --- | --- | --- | --- | --- | --- | --- | --- | --- | --- | --- | --- | --- |
| Cc1cc(/C=C/C#N)cc(C)c1-c1cccc2c(N)nc(Nc3ccc(C#N)nn3)nc12 [Compound 11, (E)-6-((4-Amino-8-(4-(2-cyanovinyl)-2,6-dimethylphenyl)quinazolin-2-yl)amino)pyridazine-3-carbonitrile] | 154.0 | 161.0 | 5.2 | 1.2 | 157.0 | 126 | 29.8 | 4.7 | 4.2 | 85.0 | 2.1 | >3 |  |
| N#C/C=C/c1cc(F)c(-c2cccc3cnc(Nc4ccc(C#N)cc4)nc23)c(F)c1 [Compound 5, (E)-4-((8-(4-(2-Cyanovinyl)-2,6-difluorophenyl)quinazolin-2-yl)amino)benzonitrile] | 15.4 | 174.0 | 2.5 | 1.7 | 208.0 | 12 | 8.2 | 1.3 | 1.5 | 18.9 | 1.6 |  |  |
| COc1cc(Nc2nc(N)c3cccc(-c4c(C)cc(/C=C/C#N)cc4C)c3n2)ccc1C#N [Compound 3, (E)-4-((4-Amino-8-(4-(2-cyanovinyl)-2,6-dimethylphenyl)quinazolin-2-yl)amino)-2-methoxybenzonitrile] | 3.4 | 13.7 | 12 | 0.9 | 3.4 | 50.2 | 3.9 |  | 12.9 | 1.0 | 1.0 |  |  |
| Cc1cc(/C=C/C#N)cc(C)c1-c1cccc2c(N)nc(Nc3cnc(C#N)cn3)nc12 [Compound 12, (E)-5-((4-Amino-8-(4-(2-cyanovinyl)-2,6-dimethylphenyl)quinazolin-2-yl)amino)pyrazine-2-carbonitrile] |  |  | 1.7 | 0.9 |  | 12.5 | 6.9 |  | 1.8 |  |  | >3 | 1.8 |
| Cc1cc(/C=C/C#N)cc(C)c1-c1cccc2cnc(Nc3ccc(C#N)cn3)nc12 [Compound 13, (E)-6-((8-(4-(2-Cyanovinyl)-2,6-dimethylphenyl)quinazolin-2-yl)amino)nicotinonitrile] |  |  | 5.9 | 1.4 |  | 27.4 | 6.4 | 3.2 | 4.3 |  |  | 1.3 |  |
| Cc1cc(/C=C/C#N)cc(C)c1-c1cc(F)cc2cnc(Nc3ccc(C#N)cc3)nc12 [Compound 4, (E)-4-((8-(4-(2-Cyanovinyl)-2,6-dimethylphenyl)-6-fluoroquinazolin-2-yl)amino)benzonitrile] | 4.9 | 16.9 | 19.1 | 2.0 | 12.8 | 47 | 4.8 | 9.2 | 9.8 | 5.4 | 1.4 |  |  |
